Legend:
human TRPA1 = assay: Ratiometric calcium imaging of NAPQI activation of TRPA1 in HEK 293 cells; type: cell-based; conditions: 7 μM NAPQI; for inhibition of the activation of the receptor (TRPA1) by NAPQI: 4 μM test substance, HEK 293 cells expressing human TRPA1, FIG. 1
Procedure: The calcium ion channel TRPA 1 is activated by NAPQI. This activation may be determined by ratiometric calcium imaging.
HEK 293 cells expressing human TRPA1 were pre-incubated with 7 μM NAPQI and the calcium fluorophore FURA II. One experiment was run in the presence of 4 μM NBMI and the another was run in the presence of 4 μM NAC.

[1] = Clinical proof of concept study: paracetamol and cys-paracetamol in venous blood after 1 g paracetamol with or without NBMI; type: in vivo, human; conditions: venous blood over eight hours
Procedure: A pilot clinical study was performed at the Lund Hospital Clinical Trial Unit, on three occasions.

[2] = system: paracetamol intoxicated mice; assay: Paracetamol intoxicated mice study, oral paracetamol (ALT); type: in vivo
Procedure: (§1) The ratio of AST: ALT can also be relevant in humans; a value at or below 1 is considered to indicate toxicity.
20 minutes later, half of the mice (3) were administered vehicle (0.5% (w/v) carboxymethylcellulose 300-600 centipoises in water) only, half of the mice (3) received NBMI 100 mg/kg per os (NBMI dissolved in CMC as described below). […]

[3] = system: paracetamol intoxicated mice; assay: Paracetamol intoxicated mice study, i.p. paracetamol (ALT, AST); type: in vivo; conditions: paracetamol 300 mg/kg I.P., 24 hours
Procedure: In normal mice, the liver enzyme alanine transaminase (ALT) level is about 36-40 unit/L and the liver enzyme aspartate transaminase (AST) level is about 90 unit/L. […] The ratio of AST: ALT can also be relevant in humans; a value at or below 1 is considered to indicate toxicity. […] 30 minutes later, two (2) of the mice were administered vehicle only, two (2) received NAC 1200 mg/kg per os, two (2) received NBMI 200 mg/kg per os. The mice were sacrificed at 24 hours.

[4] = system: paracetamol intoxicated mice; assay: NBMI versus vehicle in paracetamol intoxicated mice, i.p. paracetamol, synchronised oral dosing (AST, ALT); type: in vivo
Procedure: as §1
Mice were sacrificed at 24 hours after administration, following which levels of liver enzymes AST and ALT were measured.
In the NBMI-treated group, eleven (11) mice were treated.

[5] = Clinical trials of NBMI, adverse events; type: in vivo; conditions: 4.5-9 mg/kg dose in humans
[6] = NBMI 200 mg/kg per os 30 minutes later
[7] = paracetamol 200 mg/kg i.p., synchronous oral NBMI 680 mg/kg in CMC, 24 hours
[8] = NAC 1200 mg/kg per os 30 minutes later

Row | SMILES | receptor activation (human TRPA1; in the absence of NBMI or NAC) | inhibition of the activation of the receptor (TRPA1) by NAPQI (human TRPA1) | decrease of area under the curve (AUC) of cys-paracetamol ([1]; 600 mg NBMI one hour prior to 1 g paracetamol) [%] | decrease of area under the curve (AUC) of cys-paracetamol ([1]; 1,200 mg NBMI two hours before 1 g paracetamol) [%] | median ALT level ([2]; paracetamol 700 mg/kg per os, NBMI 100 mg/kg per os 20 minutes later, sacrificed at 17 hours) [unit/L] | median ALT lower than the median of the intoxicated animals ([2]; po, 100 mg/kg) | AST level (printed as ALT level) [3, 6] [unit/L] | average ALT level [3, 6] [unit/L] | AST/ALT ratio, average ([4]; 680 mg/kg, 24 h) | ALT, average [4, 7] [units/L] | AST, average [4, 7] [units/L] | drug related adverse events [5] | AST level [3, 8] [unit/L] | average ALT level [3, 8] [unit/L]
1 | CC(=O)N=C1C=CC(=O)C=C1 [NAPQI, N-acetyl-p-benzoquinone imine] | about 55% |  |  |  |  |  |  |  |  |  |  |  |  | 
2 | O=C(NCCS)c1cccc(C(=O)NCCS)c1 [NBMI, N,N-bis-2-mercaptoethyl isophthalamide] |  | almost completely inhibited | 23 | 73 | 624 | about 95% | 600 | 984 | 2.1 | 952 | 753 | no drug related adverse events |  | 
3 | CC(=O)N[C@@H](CS)C(=O)O [NAC, N-acetyl cysteine, reference compound] |  | only partial inhibition |  |  |  |  |  |  |  |  |  |  | 180 | 55

Source: US20250325503A1, “NEW USE OF N,N-BIS-2-MERCAPTOETHYL ISOPHTHALAMIDE” (EMERAMED LIMITED, priority 2016, published 2025)
